From patent US9730914B2, “3,5-diaminopyrazole kinase inhibitors” (Axikin Pharmaceuticals, Inc., priority 2014, dated 2017)
Values belong to the molecule of their own block, whether it stands above or below them.

Experiments:
[1] = target: T1, kinase domain protein of RC kinase (RCK) (Homo sapiens, UniProt Q56UN5); assay: Kinase competition binding assay (Kd, qPCR readout), RC kinase; settings: Kd class, read-out: RCK Activity Level
T1 construct: made in house; host or cells: E. coli BL21-derived host (T7 phage) or HEK-293
T1 sequence (Q56UN5 1061-1324 limits assumed): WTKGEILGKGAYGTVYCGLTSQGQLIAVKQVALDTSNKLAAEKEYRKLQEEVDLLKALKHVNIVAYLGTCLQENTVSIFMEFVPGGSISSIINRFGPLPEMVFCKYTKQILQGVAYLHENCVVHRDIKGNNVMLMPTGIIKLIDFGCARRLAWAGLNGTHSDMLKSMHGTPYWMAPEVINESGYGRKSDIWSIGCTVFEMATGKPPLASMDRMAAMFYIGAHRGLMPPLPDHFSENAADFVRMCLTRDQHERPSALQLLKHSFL
Method in brief: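 Competition binding: DNA-tagged kinase (T7 phage or HEK-293-expressed) plus immobilized biotinylated ligand beads and compound, 1 h at room temperature, 1% DMSO. Bead-bound kinase eluted and quantified by qPCR. Kd from 11-point 3-fold dilution, top 30,000 nM, retested lower if below 0.5 nM.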

JAK3 = target: T2, JAK3 (Homo sapiens, UniProt P52333); assay: Kinase competition binding assay (Kd, qPCR readout), JAK3; settings: for Kd: read-out: JAK3 Activity Level; for RCK:JAK3 selectivity ratio: ratio Kd (JAK3): Kd (RCK)
T2 construct: made in house; host or cells: E. coli BL21-derived host (T7 phage) or HEK-293
T2 sequence (P52333 811-1124 limits assumed): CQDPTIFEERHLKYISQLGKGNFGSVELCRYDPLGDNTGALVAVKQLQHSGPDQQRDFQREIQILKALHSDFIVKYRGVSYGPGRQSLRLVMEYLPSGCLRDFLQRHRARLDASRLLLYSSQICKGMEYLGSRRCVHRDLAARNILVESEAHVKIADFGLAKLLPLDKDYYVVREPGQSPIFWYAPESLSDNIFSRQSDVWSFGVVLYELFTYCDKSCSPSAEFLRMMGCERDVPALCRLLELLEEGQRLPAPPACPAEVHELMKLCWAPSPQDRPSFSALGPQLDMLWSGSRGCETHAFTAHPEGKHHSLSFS
Method in brief: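 Kd values were derived from 11-point, 3-fold compound series at 1% DMSO, usually topping at 30,000 nM, with retesting from a lower top when under 0.5 nM. It competed with bead-immobilized ligand for 1 h at room temperature, and the captured kinase was measured by qPCR after elution.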

JAK2 = target: T3, JAK2 (Homo sapiens, UniProt O60674); assay: Kinase competition binding assay (Kd, qPCR readout), JAK2; settings: for Kd: Kd class, JAK2, read-out: JAK2 Activity Level; for RCK:JAK2 selectivity ratio: ratio Kd (JAK2): Kd(RCK)
T3 construct: made in house; host or cells: E. coli BL21-derived host (T7 phage) or HEK-293
T3 sequence (O60674 840-1132 limits assumed): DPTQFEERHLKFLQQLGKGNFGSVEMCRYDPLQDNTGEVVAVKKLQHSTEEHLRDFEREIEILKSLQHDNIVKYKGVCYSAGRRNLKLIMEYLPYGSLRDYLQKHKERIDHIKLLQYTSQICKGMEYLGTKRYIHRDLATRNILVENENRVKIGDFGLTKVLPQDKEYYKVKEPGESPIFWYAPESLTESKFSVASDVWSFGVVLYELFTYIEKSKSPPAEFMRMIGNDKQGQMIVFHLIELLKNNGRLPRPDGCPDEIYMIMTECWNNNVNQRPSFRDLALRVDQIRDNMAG
Method in brief: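 Competition binding: DNA-tagged kinase (T7 phage or HEK-293-expressed), immobilized biotinylated ligand beads and compound in SeaBlock/PBS/Tween/DTT buffer, 1 hour at room temperature; bound kinase eluted and quantified by qPCR. Kd from 11-point 3-fold dilution, top 30,000 nM typically, final DMSO 1%.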

SMILES: Cc1cc(Nc2n[nH]c(NCc3ccc(O)cc3)c2C(N)=O)cnc1N1CCOCC1 [reference compound]
- Kd [1]: < 50 nM
- Kd (JAK3; Kd class, JAK3): < 50 nM
- RCK:JAK3 selectivity ratio (JAK3): C (C represents 1<Kd (JAK3): Kd (RCK)<10)
- Kd (JAK2): < 50 nM
- RCK:JAK2 selectivity ratio (JAK2): D (D represents Kd(JAK2): Kd (RCK)<1)

SMILES: Cc1cc(Nc2n[nH]c(NCc3ccc(O)cc3)c2C(N)=O)cnc1N1CCN(C(C)C)CC1 [reference compound]
- Kd [1]: < 50 nM
- Kd (JAK3; Kd class, JAK3): < 50 nM
- RCK:JAK3 selectivity ratio (JAK3): C (C represents 1<Kd (JAK3): Kd (RCK)<10)
- Kd (JAK2): < 50 nM
- RCK:JAK2 selectivity ratio (JAK2): D (D represents Kd(JAK2): Kd (RCK)<1)

SMILES: Cc1cc(Nc2n[nH]c(NCc3ccc(O)cc3)c2C(N)=O)cnc1N1CCN(C)CC1 [reference compound]
- Kd [1]: < 50 nM
- Kd (JAK3; Kd class, JAK3): < 50 nM
- RCK:JAK3 selectivity ratio (JAK3): C (C represents 1<Kd (JAK3): Kd (RCK)<10)
- Kd (JAK2): < 50 nM
- RCK:JAK2 selectivity ratio (JAK2): D (D represents Kd(JAK2): Kd (RCK)<1)

SMILES: C[C@@H]1CN(c2ccc(Nc3n[nH]c(NCc4ccc(O)cc4)c3C(N)=O)cc2Cl)C[C@H](C)O1 [reference compound]
- Kd [1]: < 50 nM
- Kd (JAK3; Kd class, JAK3): < 50 nM
- RCK:JAK3 selectivity ratio (JAK3): C (C represents 1<Kd (JAK3): Kd (RCK)<10)
- Kd (JAK2): < 50 nM
- RCK:JAK2 selectivity ratio (JAK2): D (D represents Kd(JAK2): Kd (RCK)<1)

SMILES: NC(=O)c1c(Nc2ccc(-c3cccnc3)cc2)n[nH]c1NCc1ccc(O)cc1 [reference compound]
- Kd [1]: < 50 nM
- Kd (JAK3; Kd class, JAK3): < 50 nM
- RCK:JAK3 selectivity ratio (JAK3): C (C represents 1<Kd (JAK3): Kd (RCK)<10)
- Kd (JAK2): < 50 nM
- RCK:JAK2 selectivity ratio (JAK2): C (C represents 1<Kd (JAK2): Kd (RCK)<10)

SMILES: CC(C)N1CCN(c2ccc(Nc3n[nH]c(NCc4ccc(O)cc4)c3C(N)=O)cc2Cl)CC1 [reference compound]
- Kd [1]: < 50 nM
- Kd (JAK3; Kd class, JAK3): < 50 nM
- RCK:JAK3 selectivity ratio (JAK3): C (C represents 1<Kd (JAK3): Kd (RCK)<10)
- Kd (JAK2): < 50 nM
- RCK:JAK2 selectivity ratio (JAK2): C (C represents 1<Kd (JAK2): Kd (RCK)<10)

SMILES: NC(=O)c1c(Nc2ccc(-c3ccccc3)cc2)n[nH]c1NCc1ccc(O)cc1 [reference compound]
- Kd [1]: 50 to 100 nM
- Kd (JAK3; Kd class, JAK3): 50 to 100 nM
- RCK:JAK3 selectivity ratio (JAK3): C (C represents 1<Kd (JAK3): Kd (RCK)<10)
- Kd (JAK2): < 50 nM
- RCK:JAK2 selectivity ratio (JAK2): D (D represents Kd(JAK2): Kd (RCK)<1)

SMILES: CC(C)(C)c1ccc(Nc2n[nH]c(NCc3ccc(O)cc3)c2C(N)=O)cc1 [reference compound]
- Kd [1]: < 50 nM
- Kd (JAK3; Kd class, JAK3): 50 to 100 nM
- RCK:JAK3 selectivity ratio (JAK3): C (C represents 1<Kd (JAK3): Kd (RCK)<10)
- Kd (JAK2): < 50 nM
- RCK:JAK2 selectivity ratio (JAK2): D (D represents Kd(JAK2): Kd (RCK)<1)

SMILES: NC(=O)c1c(Nc2ccc3[nH]ncc3c2)n[nH]c1NCc1ccc(O)cc1 [reference compound]
- Kd [1]: 50 to 100 nM
- Kd (JAK3; Kd class, JAK3): < 50 nM
- RCK:JAK3 selectivity ratio (JAK3): D (D represents Kd (JAK3): Kd(RCK)<1)
- Kd (JAK2): < 50 nM
- RCK:JAK2 selectivity ratio (JAK2): D (D represents Kd(JAK2): Kd (RCK)<1)

SMILES: CC1CCN(C2CCN(c3ccc(Nc4n[nH]c(NCc5ccc(O)cc5)c4C(N)=O)cc3)CC2)CC1 [reference compound]
- Kd [1]: < 50 nM
- Kd (JAK3; Kd class, JAK3): < 50 nM
- RCK:JAK3 selectivity ratio (JAK3): D (D represents Kd (JAK3): Kd(RCK)<1)
- Kd (JAK2): < 50 nM
- RCK:JAK2 selectivity ratio (JAK2): C (C represents 1<Kd (JAK2): Kd (RCK)<10)

SMILES: NC(=O)c1c(Nc2ccc(N3CCN(C(=O)N4CCCC4)CC3)cc2)n[nH]c1NCc1ccc(O)cc1 [reference compound]
- Kd [1]: < 50 nM
- Kd (JAK3; Kd class, JAK3): < 50 nM
- RCK:JAK3 selectivity ratio (JAK3): C (C represents 1<Kd (JAK3): Kd (RCK)<10)
- Kd (JAK2): < 50 nM
- RCK:JAK2 selectivity ratio (JAK2): D (D represents Kd(JAK2): Kd (RCK)<1)

SMILES: NC(=O)c1c(Nc2ccc(N3CCC(F)CC3)cc2)n[nH]c1NCc1ccc(O)cc1 [reference compound]
- Kd [1]: < 50 nM
- Kd (JAK3; Kd class, JAK3): < 50 nM
- RCK:JAK3 selectivity ratio (JAK3): D (D represents Kd (JAK3): Kd(RCK)<1)
- Kd (JAK2): < 50 nM
- RCK:JAK2 selectivity ratio (JAK2): D (D represents Kd(JAK2): Kd (RCK)<1)

SMILES: N#CCc1ccc(Nc2n[nH]c(NCc3ccc(O)cc3)c2C(N)=O)cc1 [reference compound]
- Kd [1]: < 50 nM
- Kd (JAK3; Kd class, JAK3): < 50 nM
- RCK:JAK3 selectivity ratio (JAK3): C (C represents 1<Kd (JAK3): Kd (RCK)<10)
- Kd (JAK2): < 50 nM
- RCK:JAK2 selectivity ratio (JAK2): D (D represents Kd(JAK2): Kd (RCK)<1)

SMILES: NC(=O)c1c(Nc2ccc(NC(=O)c3ccc(C(F)(F)F)cc3)cc2)n[nH]c1NCc1ccc(O)cc1 [reference compound]
- Kd [1]: 50 to 100 nM
- Kd (JAK3; Kd class, JAK3): 100 to 1000 nM
- RCK:JAK3 selectivity ratio (JAK3): C (C represents 1<Kd (JAK3): Kd (RCK)<10)
- Kd (JAK2): 100 to 1000 nM
- RCK:JAK2 selectivity ratio (JAK2): C (C represents 1<Kd (JAK2): Kd (RCK)<10)

SMILES: CC1CCN(c2ccc(Nc3n[nH]c(NCc4ccc(O)cc4)c3C(N)=O)cc2)CC1 [reference compound]
- Kd [1]: < 50 nM
- Kd (JAK3; Kd class, JAK3): 50 to 100 nM
- RCK:JAK3 selectivity ratio (JAK3): C (C represents 1<Kd (JAK3): Kd (RCK)<10)
- Kd (JAK2): < 50 nM
- RCK:JAK2 selectivity ratio (JAK2): D (D represents Kd(JAK2): Kd (RCK)<1)

Further lines, with some results ahead:

- Kd [1]: < 50 nM
- Kd (JAK3; Kd class, JAK3): < 50 nM
- Kd (JAK2): < 50 nM
- RCK:JAK2 selectivity ratio (JAK2): D (D represents Kd(JAK2): Kd (RCK)<1)
SMILES: C[C@@H]1CN(c2ccc(Nc3n[nH]c(NCc4ccc(O)cc4)c3C(N)=O)cc2)C[C@H](C)O1 [reference compound]
- RCK:JAK3 selectivity ratio (JAK3): C (C represents 1<Kd (JAK3): Kd (RCK)<10)

- Kd [1]: < 50 nM
- Kd (JAK3; Kd class, JAK3): 50 to 100 nM
- Kd (JAK2): < 50 nM
SMILES: NC(=O)c1c(Nc2cnc(N3CCOCC3)c(Cl)c2)n[nH]c1NCc1ccc(O)cc1 [reference compound]
- RCK:JAK3 selectivity ratio (JAK3): C (C represents 1<Kd (JAK3): Kd (RCK)<10)
- RCK:JAK2 selectivity ratio (JAK2): C (C represents 1<Kd (JAK2): Kd (RCK)<10)

- Kd [1]: < 50 nM
- Kd (JAK3; Kd class, JAK3): < 50 nM
- Kd (JAK2): < 50 nM
- RCK:JAK2 selectivity ratio (JAK2): D (D represents Kd(JAK2): Kd (RCK)<1)
SMILES: NC(=O)c1c(Nc2ccc(-n3cccc3)cc2)n[nH]c1NCc1ccc(O)cc1 [reference compound]
- RCK:JAK3 selectivity ratio (JAK3): C (C represents 1<Kd (JAK3): Kd (RCK)<10)

- Kd [1]: < 50 nM
- Kd (JAK3; Kd class, JAK3): < 50 nM
- Kd (JAK2): < 50 nM
- RCK:JAK2 selectivity ratio (JAK2): D (D represents Kd(JAK2): Kd (RCK)<1)
SMILES: NC(=O)c1c(Nc2ccc(N3CCOCC3)nc2)n[nH]c1NCc1ccc(O)cc1 [reference compound]
- RCK:JAK3 selectivity ratio (JAK3): C (C represents 1<Kd (JAK3): Kd (RCK)<10)

- Kd [1]: < 50 nM
- Kd (JAK3; Kd class, JAK3): < 50 nM
- Kd (JAK2): < 50 nM
- RCK:JAK2 selectivity ratio (JAK2): D (D represents Kd(JAK2): Kd (RCK)<1)
SMILES: NC(=O)c1c(Nc2ccc(-c3ccccn3)cc2)n[nH]c1NCc1ccc(O)cc1 [reference compound]
- RCK:JAK3 selectivity ratio (JAK3): C (C represents 1<Kd (JAK3): Kd (RCK)<10)

- Kd [1]: < 50 nM
- Kd (JAK3; Kd class, JAK3): < 50 nM
- Kd (JAK2): < 50 nM
SMILES: CN1CCN(c2ccc(Nc3n[nH]c(NCc4ccc(O)cc4)c3C(N)=O)cc2)CC1 [reference compound]
- RCK:JAK3 selectivity ratio (JAK3): C (C represents 1<Kd (JAK3): Kd (RCK)<10)
- RCK:JAK2 selectivity ratio (JAK2): C (C represents 1<Kd (JAK2): Kd (RCK)<10)

- Kd [1]: < 50 nM
- JAK3 Activity Level (JAK3; Kd class, JAK3): .A
- RCK:JAK3 selectivity ratio (JAK3): D (D represents Kd (JAK3): Kd(RCK)<1)
- Kd (JAK2): < 50 nM
- RCK:JAK2 selectivity ratio (JAK2): D (D represents Kd(JAK2): Kd (RCK)<1)
SMILES: NC(=O)c1c(Nc2ccc(N3CCOCC3)cn2)n[nH]c1NCc1ccc(O)cc1 [reference compound]
